These results are taken from ChEMBL document CHEMBL1125352, “Synthesis of biologically active taxol analogues with modified phenylisoserine side chains” (1992).

Holding throughout (format): functional
Assay [1] in a line: Ratio of ED50 of taxol to ED50 from cytotoxicity against B16 melanoma cell lines.
Assay [2] can be described thus: Ratio of ED50 of taxol to ED50 from tubulin binding assay.
Assay [3] concerns B16. Kind of assay: Cytotoxicity against B16 melanoma cell line. The conditions noted are these: Mus musculus, read-out: ED50 (the source's name).
Assay [4] addresses T1, Tubulin (Bos taurus) (UniProt Q6B856+Q862L2+Q862F3). Nature of the assay: Concentration to stimulate the assembly of tubulin into microtubules.
The target of assay [5] is T1, Tubulin (Bos taurus). Nature of the assay: Concentration to stimulate the assembly of tubulin into microtubules at a dose of […].
In assay [6] the test system is B16. Nature of the assay: Cytotoxicity against B16 melanoma cell line.62% inhibition at 42 uM. The conditions noted are these: Mus musculus, read-out: ED50 (the source's name).
Assay [7] has as its system B16. Kind of assay: Cytotoxicity against B16 melanoma cell line.40% inhibition at 1 uM. The conditions noted are these: Mus musculus, read-out: ED50 (the source's name).

Consider `CC(=O)O[C@H]1C(=O)[C@@]2(C)[C@H]([C@H](OC(=O)c3ccccc3)[C@]3(O)C[C@H](OC(=O)[C@H](O)[C@@H](NC(=O)c4ccc(Cl)cc4)c4ccccc4)C(C)=C1C3(C)C)[C@]1(OC(C)=O)CO[C@@H]1C[C@@H]2O`, for which the Ratio in assay [1] is 1.5; in assay [2], 2.4. The EC50 in assay [3] was 43 nM. In assay [4], this molecule came in with an ED50 of 1700 nM.

In the case of `CC(=O)O[C@H]1C(=O)[C@@]2(C)[C@H]([C@H](OC(=O)c3ccccc3)[C@]3(O)C[C@H](OC(=O)[C@H](O)[C@@H](NC(=O)c4ccccc4)c4ccc(Cl)cc4)C(C)=C1C3(C)C)[C@]1(OC(C)=O)CO[C@@H]1C[C@@H]2O`, the Ratio in assay [1] came to 2.2; in assay [2], 1.9. In addition, in assay [3], the EC50 amounted to 61 nM. The molecule also registered an ED50 in assay [4] of 1300 nM.

Turning to `O=C(N[C@@H](c1ccccc1)[C@@H](O)C(=O)O)c1ccccc1` (relative stereo), the ED50 in assay [5] is > 10000 nM. Besides, the Ratio is >360 in assay [1] and > 14 in assay [2]. The EC50 in assay [6] was > 10000 nM.

Turning to `CC(=O)O[C@H]1C(=O)[C@@]2(C)[C@H]([C@H](OC(=O)c3ccccc3)[C@]3(O)C[C@H](O)C(C)=C1C3(C)C)[C@]1(OC(C)=O)CO[C@@H]1C[C@@H]2O` [BACCATIN III], the ED50 in assay [5] was > 10000 nM. Besides, the Ratio in assay [1] was >36; in assay [2] it was > 14. Besides, in assay [7], the EC50 is > 1000 nM.

As for `CC(=O)O[C@H]1C(=O)[C@@]2(C)[C@H]([C@H](OC(=O)c3ccccc3)[C@]3(O)C[C@H](OC(=O)[C@H](O)[C@@H](NC(=O)c4ccccc4)c4ccccc4)C(C)=C1C3(C)C)[C@]1(OC(C)=O)CO[C@@H]1C[C@@H]2O` [PACLITAXEL], the Ratio in assay [1] and in assay [2] was 1 in each case. For the same molecule, the EC50 in assay [3] is 28 nM. This molecule registered an ED50 in assay [4] of 700 nM.
